Measurements as given in paper PMC3486420, “In Vitro and In Vivo Characterizations of Chiglitazar, a Newly Identified PPAR Pan-Agonist” (PPAR Research, 2012).

System: KKAy mice
Assay: Gene expression by RT-PCR in tissues of treated KKAy mice
Format: in vivo, mouse
Conditions: 12 days oral
Method: Total RNA was extracted from cells or tissues with an RNeasy minikit (Qiagen, Valencia, CA, USA). The first-strand cDNA was synthesized using the oligo(dT) primers, followed by using SuperScript II reverse transcriptase (Invitrogen) according to the manufacturer's instructions. The PCR amplifications were performed in 10 μL of reaction mixture volume containing 0.8 μL of cDNA, 10 mM Tris-HCl (pH 8.3), 50 mM KCl, 1.5 mM MgCl2, 0.1% Triton X-100, 0.2 mM deoxynucleotide triphosphates, 0.4 μM primers, and 0.25 U of Taq polymerase (TaKaRa Biotechnology Co., Ltd, China). Taq DNA polymerase was added to each tube after a treatment of 2 min at 94°C. This was followed by 22–30 cycles of denaturation (23 s at 94°C), annealing (20 s at 55°C), extension (30 s at 72°C), and a final extension step of 2 min. PCR products were analyzed by electrophoresis on a 1.5% agarose gel stained with ethidium bromide.
Male db/db mice (BKS.Cg-m +/+ LEPR^db) in 6-7 weeks were purchased from The Jackson Laboratory (Bar Harbor, ME, USA). Male KKAy and C57BL/6J mice in 8–10 weeks were obtained from the Institute of Animal Science, Chinese Academy of Medical Sciences and Peking Union Medical College (Beijing, China). Animals were randomly sorted into different treatment groups (8–10 per group). […]. Plasma glucose levels were examined at various time points by Accu-Chek Advantage II Glucose Strips (Roche Diagnostics, Basel, Switzerland) and measured by Accu-Chek Advantage (Roche Diagnostics). Animals were sacrificed 24 h after the last dosing and abdominal fat pad, liver, and skeletal muscle from KKAy mice and abdominal fat pad from db/db mice were taken for gene expression analysis.
Figure 3 In vivo regulation of gene expression by chiglitazar. […]. Equal amount of total RNA from each mouse in the same group was mixed and subjected to RT-PCR analysis for the indicated genes. […]. Total RNA was isolated from individual animal tissues and subjected to the RT-PCR analysis independently for the indicated genes.

[1] = chiglitazar 20 mg kg^−1, rosiglitazone 5 mg kg^−1

## O=C(c1ccc(F)cc1)c1ccccc1NC(Cc1ccc(OCCn2c3ccccc3c3ccccc32)cc1)C(=O)O (stereo not shown) [Chi, 2-[(2-(4-fluorobenzoyl)phenyl)amino]-3-[4-(2-carbazolylethoxy)-phenyl]-propionic acid]
[1]
  Expression of ACADL, HSL, GLUT4 and PPARγ in liver and skeletal muscle: not affected
  Expression of genes involved in PPARγ-mediated insulin sensitization in adipose tissue: almost identically up-regulated
Chiglitazar 20 mg kg^−1 compared with rosiglitazone 5 mg kg^−1
  Expression of PPARα and VLCS in adipose tissue: greater degree of upregulation
Chiglitazar 20 mg kg^−1 vs rosiglitazone 5 mg kg^−1
  Expression of leptin and SREBP1 in liver and skeletal muscle: more upregulated
